Molecules are shown by their SMILES. Counter-ions that a name gives are not always drawn. Where only a bound is given, the exact number is not on record here.

Our source for the IC50 and EC50 values is patent US8178534B2, “cMET inhibitors” (Takeda Pharmaceutical Company Limited, priority 2008, dated 2012).

Test [1] has as its target T1, cMET enzyme (amino acids 1023-1360) (Homo sapiens, UniProt P08581).
T1 construct: The cMET enzyme (amino acids 1023-1360) nominally at 24 μM was held at −80° C. until use; His tag (N, cleaved yes); made in house; host or cells: Sf9 cells
The experiment in a line: Determination of inhibition of cMET (capillary electrophoresis, phosphorylated peptide product). The conditions noted are these: 1.2 nM cMET, 50 μM ATP, 2 μM FL-2 peptide, 2 hours room temperature. The class given is biochemical.

The next test concerns MKN45. The experiment in a line: Inhibition of cell viability (MTS), MKN45. The format is cell-based. As to conditions: 96 hours incubation. In short, it runs like this:
(§1)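 Cells seeded at 2,000-7,500/well, attached ~24 h, then treated in duplicate with 1:2.5 serial dilutions at 0.5% final DMSO. Viability by MTS; EC50 from non-linear fit after background correction and normalisation to DMSO. MKN45 and EBC1 are cMET-dependent; A549 serves as negative control.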

Another test concerns EBC1. The experiment in a line: Inhibition of cell viability (MTS), EBC1. As to conditions: Homo sapiens, 96 hours incubation. The format is cell-based. In short, it runs like this:
as §1

The subject of another test is A549. The experiment in a line: Inhibition of cell viability (MTS), A549 (negative control line). The conditions noted are these: Homo sapiens, A549 cells (negative control), 96 hours incubation. The format is cell-based. In a few lines: as §1
[2] abbreviates: Homo sapiens, MKN-45, 96 h, MKN45 cells.
Where [3] appears, read: Homo sapiens, MKN-45, MKN45 cells.

T1 sequence (P08581 1023-1360): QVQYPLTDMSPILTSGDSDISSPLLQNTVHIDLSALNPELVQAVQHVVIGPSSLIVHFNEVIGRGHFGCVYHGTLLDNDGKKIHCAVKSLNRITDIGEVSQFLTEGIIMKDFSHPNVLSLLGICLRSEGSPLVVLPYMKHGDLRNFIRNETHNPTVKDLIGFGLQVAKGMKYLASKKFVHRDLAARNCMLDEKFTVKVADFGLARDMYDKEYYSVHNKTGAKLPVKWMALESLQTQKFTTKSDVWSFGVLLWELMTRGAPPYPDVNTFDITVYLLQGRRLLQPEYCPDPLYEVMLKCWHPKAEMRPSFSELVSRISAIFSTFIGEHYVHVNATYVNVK

As a reminder, the IC50 is the concentration that gives 50% inhibition. Read a low IC50 as greater potency. One may read the EC50 as the concentration giving half of the maximal effect. Read a high EC50 as weaker potency. For the compound `O=C(Nc1cn2nc(Sc3nnc4ccc(-c5nn[nH]n5)cn34)ccc2n1)C1CC1` [Compound 38, N-(6-(6-(2H-tetrazol-5-yl)-[1,2,4]triazolo[4,3-a]pyridin-3-ylthio)imidazo[1,2-b]pyridazin-2-yl)cyclopropanecarboxamide], in test [1], the IC50 was above 100 nM. Further, the EC50 was above 630 nM in the test with MKN45 (setting [2]); above 200 nM with EBC1 (EBC-1, 96 h, EBC1 cells); above 50000 nM with A549 (A549, 96 h).

With `O=C(Nc1cn2nc(Sc3nnc4ccc(-c5ccc(N6CCNCC6)cc5)cn34)ccc2n1)C1CC1` [Compound 36, N-(6-(6-(4-(piperazin-1-yl)phenyl)-[1,2,4]triazolo[4,3-a]pyridin-3-ylthio)imidazo[1,2-b]pyridazin-2-yl)cyclopropanecarboxamide], in test [1], the IC50 is below 30 nM. Besides, the EC50 with MKN45 (setting [2]) was 250 to 630 nM; in the test with EBC1 (EBC-1, 96 h, EBC1 cells), 35 to 99 nM; in the test with A549 (A549, 96 h), above 50000 nM.

With `CC(c1ccc2nc(NC(=O)C3CC3)cn2n1)c1nnc2ccc(-c3cccc(C#N)c3)cn12` (stereo not shown) [Compound 57, N-(6-(1-(6-(3-cyanophenyl)-[1,2,4]triazolo[4,3-a]pyridin-3-yl)ethyl)imidazo[1,2-b]pyridazin-2-yl)cyclopropanecarboxamide], the IC50 in test [1] was below 30 nM. Moreover, the concentration for a half-maximal effect (EC50) with MKN45 (setting [2]) is below 30 nM; in the test with EBC1 (EBC-1, 96 h, EBC1 cells), below 30 nM; with A549 (A549, 96 h) it was above 50000 nM.

In turn, `O=C(Nc1cn2nc(C(F)(F)c3nnc4ccc(-c5cncnc5)cn34)ccc2n1)C1CC1` [Compound 87, N-(6-(difluoro(6-(pyrimidin-5-yl)-[1,2,4]triazolo[4,3-a]pyridin-3-yl)methyl)imidazo[1,2-b]pyridazin-2-yl)cyclopropanecarboxamide] gave a half-maximal inhibitory concentration (IC50) in test [1] of 100 to 249 nM. Further, the EC50 in the test with MKN45 (setting [2]) was 30 to 59 nM; in the test on EBC1 (EBC-1, 96 h, EBC1 cells), 30 to 59 nM; with A549 (A549, 96 h), above 50000 nM.

Regarding `O=C(Nc1cn2nc(C(F)(F)c3nnc4ccc(-c5cc(F)cc(F)c5)cn34)ccc2n1)C1CC1` [Compound 81, N-(6-((6-(3,5-difluorophenyl)-[1,2,4]triazolo[4,3-a]pyridin-3-yl)difluoromethyl)imidazo[1,2-b]pyridazin-2-yl)cyclopropanecarboxamide], the IC50 in test [1] was below 30 nM. For the same compound, the EC50 in the test on MKN45 (setting [2]) was below 30 nM; in the test with EBC1 (EBC-1, 96 h, EBC1 cells), below 30 nM; in the test on A549 (A549, 96 h) it was above 50000 nM.

`CC(c1ccc2nc(NC(=O)C3CC3)cn2n1)c1nnc2ccc(-c3ccc(F)c(C#N)c3)cn12` (stereo not shown) [Compound 71, N-(6-(1-(6-(3-cyano-4-fluorophenyl)-[1,2,4]triazolo[4,3-a]pyridin-3-yl)ethyl)imidazo[1,2-b]pyridazin-2-yl)cyclopropanecarboxamide] had an IC50 in test [1] below 30 nM. Moreover, the EC50 in the test on MKN45 (setting [2]) was below 30 nM; in the test on EBC1 (EBC-1, 96 h, EBC1 cells), below 30 nM; in the test with A549 (A549, 96 h), above 50000 nM.

In test [1], `Cc1ccc2nnn(Cc3ccc4nc(NC(=O)C5CC5)cn4n3)c2c1` [Compound 12, N-(6-((6-methyl-1H-benzo[d][1,2,3]triazol-1-yl)methyl)imidazo[1,2-b]pyridazin-2-yl)cyclopropanecarboxamide] returned an IC50 above 100 nM. Further, the EC50 in the test on MKN45 (setting [2]) is above 630 nM; in the test on EBC1 (EBC-1, 96 h, EBC1 cells), above 200 nM; in the test with A549 (A549, 96 h) it was above 50000 nM.

Turning to `Cc1csc(-c2ccc3nnc(C(F)(F)c4ccc5nc(NC(=O)C6CC6)cn5n4)n3c2)c1` [Compound 84, N-(6-(difluoro(6-(4-methylthiophen-2-yl)-[1,2,4]triazolo[4,3-a]pyridin-3-yl)methyl)imidazo[1,2-b]pyridazin-2-yl)cyclopropanecarboxamide], in test [1], the IC50 was below 30 nM. Also, the EC50 with MKN45 (setting [2]) is below 30 nM; with EBC1 (EBC-1, 96 h, EBC1 cells), below 30 nM; in the test with A549 (A549, 96 h), above 50000 nM.

In test [1], `O=C(Nc1cn2nc(C(F)(F)c3nnc4ccc(-c5ccc(F)cc5)cn34)ccc2n1)C1CC1` [Compound 74, N-(6-(difluoro(6-(4-fluorophenyl)-[1,2,4]triazolo[4,3-a]pyridin-3-yl)methyl)imidazo[1,2-b]pyridazin-2-yl)cyclopropanecarboxamide] had an IC50 below 30 nM. Moreover, the EC50 is below 30 nM in the test with MKN45 (setting [2]); below 30 nM with EBC1 (EBC-1, 96 h, EBC1 cells); 8000 to 25000 nM with A549 (A549, 96 h).

The compound `O=C(NC1CC1)c1ccc2nnc(Sc3ccc4nc(NC(=O)C5CC5)cn4n3)n2c1` [Compound 34, 3-(2-(cyclopropanecarboxamido)imidazo[1,2-b]pyridazin-6-ylthio)-N-cyclopropyl-[1,2,4]triazolo[4,3-a]pyridine-6-carboxamide] came in with an IC50 in test [1] of 60 to 100 nM. Besides, the EC50 with MKN45 (setting [2]) was above 630 nM; in the test with EBC1 (EBC-1, 96 h, EBC1 cells), above 200 nM; in the test on A549 (A549, 96 h), above 50000 nM.

`O=C(O)c1ccc2nnc(Sc3ccc4nc(NC(=O)C5CC5)cn4n3)n2c1` [Compound 33, 3-(2-(cyclopropanecarboxamido)imidazo[1,2-b]pyridazin-6-ylthio)-[1,2,4]triazolo[4,3-a]pyridine-6-carboxylic acid]: the IC50 in test [1] is above 100 nM. In addition, the EC50 was above 630 nM with MKN45 (setting [3]); above 200 nM in the test with EBC1 (EBC-1, EBC1 cells); above 50000 nM in the test on A549.

Regarding `Cn1cc(-c2ccc3nnc(Sc4ccc5nc(NC(=O)C6CC6)cn5n4)n3c2)cn1` [Compound 5, N-(6-(6-(1-methyl-1H-pyrazol-4-yl)-[1,2,4]triazolo[4,3-a]pyridin-3-ylthio)-imidazo[1,2-b]pyridazin-2-yl)cyclopropanecarboxamide], the IC50 in test [1] was below 30 nM. The EC50 is below 100 nM in the test with MKN45 (setting [2]); below 35 nM with EBC1 (EBC-1, 96 h, EBC1 cells); above 50000 nM in the test with A549 (A549, 96 h).

`O=C(Nc1cn2nc(Sc3nnc4ccccn34)ccc2n1)C1CC1` [3 (HCl Salt)] showed an IC50 in test [1] above 100 nM. The EC50 is 250 to 630 nM with MKN45 (MKN45 cells); 100 to 199 nM in the test on EBC1 (EBC-1, 96 h, EBC1 cells); 8000 to 25000 nM in the test with A549 (A549, 96 h).

`CS(=O)(=O)c1ccc(-c2ccc3nnn(Cc4ccc5nc(NC(=O)C6CC6)cn5n4)c3c2)cc1` [Compound 17] yielded a half-maximal inhibitory concentration (IC50) in test [1] of 60 to 100 nM. Besides, the EC50 with MKN45 (setting [2]) was below 100 nM; with EBC1 (EBC-1, 96 h, EBC1 cells) it was below 35 nM; in the test on A549 (A549, 96 h) it was above 19500 nM.

`O=C(Nc1cn2nc(Sc3nnc4ccc(-c5cnc(NCCCO)nc5)cn34)ccc2n1)C1CC1` [Compound 109, N-(6-(6-(2-(3-hydroxypropylamino)pyrimidin-5-yl)-[1,2,4]triazolo[4,3-a]pyridin-3-ylthio)imidazo[1,2-b]pyridazin-2-yl)cyclopropanecarboxamide] showed an IC50 in test [1] of 250 to 630 nM. In addition, the EC50 in the test on MKN45 (setting [2]) fell in the range of 8000 to 25000 nM; in the test on EBC1 (EBC-1, 96 h, EBC1 cells), 8000 to 25000 nM; with A549 (A549, 96 h) it was 8000 to 25000 nM.

In test [1], `Nc1cn2nc(Sc3nnc4ccccn34)ccc2n1` [Compound 114, 6-([1,2,4]triazolo[4,3-a]pyridin-3-ylthio)imidazo[1,2-b]pyridazin-2-amine] yielded an IC50 above 630 nM. Further, the EC50 in the test with MKN45 (setting [2]) was above 630 nM; in the test with EBC1 (EBC-1, 96 h, EBC1 cells), above 630 nM; with A549 (A549, 96 h), above 50000 nM.

In test [1], `CNC(=O)c1ccc(-c2ccc3nnc(C(C)c4ccc5nc(NC(=O)C6CC6)cn5n4)n3c2)cc1` (stereo not shown) [Compound 68, 4-(3-(1-(2-(cyclopropanecarboxamido)imidazo[1,2-b]pyridazin-6-yl)ethyl)-[1,2,4]triazolo[4,3-a]pyridin-6-yl)-N-methylbenzamide] gave an IC50 below 30 nM. In addition, the EC50 with MKN45 (setting [2]) is 30 to 59 nM; in the test with EBC1 (EBC-1, 96 h, EBC1 cells), 30 to 59 nM; in the test on A549 (A549, 96 h) it was above 50000 nM.

With `NC(=O)c1cccc(-c2ccc3nnc(C(F)(F)c4ccc5nc(NC(=O)C6CC6)cn5n4)n3c2)c1` [Compound 90, 3-(3-((2-(cyclopropanecarboxamido)imidazo[1,2-b]pyridazin-6-yl)difluoromethyl)-[1,2,4]triazolo[4,3-a]pyridin-6-yl)benzamide], in test [1], the IC50 is below 30 nM. In addition, the EC50 was below 30 nM in the test with MKN45 (setting [2]); below 30 nM in the test with EBC1 (EBC-1, 96 h, EBC1 cells); above 50000 nM with A549 (A549, 96 h).

Compound `N#Cc1cc(-c2ccc3nnc(Sc4ccc5nc(NC(=O)C6CC6)cn5n4)n3c2)ccc1OCCO` [Compound 107, N-(6-(6-(3-cyano-4-(2-hydroxyethoxy)phenyl)-[1,2,4]triazolo[4,3-a]pyridin-3-ylthio)imidazo[1,2-b]pyridazin-2-yl)cyclopropanecarboxamide] gave an IC50 in test [1] below 30 nM. The EC50 with MKN45 (setting [3]) was 100 to 249 nM; in the test on EBC1 (EBC-1, EBC1 cells), 60 to 100 nM; in the test on A549, above 50000 nM.

For `O=C(Nc1cn2nc(Sc3nnc4ccc(-c5cccc(CCCO)c5)cn34)ccc2n1)C1CC1` [Compound 111, N-(6-(6-(3-(3-hydroxypropyl)phenyl)-[1,2,4]triazolo[4,3-a]pyridin-3-ylthio)imidazo[1,2-b]pyridazin-2-yl)cyclopropanecarboxamide], in test [1], the IC50 was below 30 nM. Also, the EC50 in the test with MKN45 (setting [2]) lay within 100 to 249 nM; in the test on EBC1 (EBC-1, 96 h, EBC1 cells), 30 to 59 nM; in the test on A549 (A549, 96 h), 8000 to 25000 nM.

In test [1], `Cn1cc(-c2ccc3nnc(C(F)(F)c4ccc5nc(N)cn5n4)n3c2)cn1` [Compound 99, 6-(difluoro(6-(1-methyl-1H-pyrazol-4-yl)-[1,2,4]triazolo[4,3-a]pyridin-3-yl)methyl)imidazo[1,2-b]pyridazin-2-amine] displayed an IC50 of 250 to 630 nM. Further, the EC50 in the test on MKN45 (setting [2]) was 100 to 249 nM; with EBC1 (EBC-1, 96 h, EBC1 cells) it was 100 to 249 nM; in the test with A549 (A549, 96 h) it was above 50000 nM.

`O=C(Nc1cn2nc(C(F)(F)c3nnc4ccc(-c5cn[nH]c5)cn34)ccc2n1)C1CC1` [Compound 92, N-(6-((6-(1H-pyrazol-4-yl)-[1,2,4]triazolo[4,3-a]pyridin-3-yl)difluoromethyl)imidazo[1,2-b]pyridazin-2-yl)cyclopropanecarboxamide] had an IC50 in test [1] below 30 nM. In addition, the EC50 in the test on MKN45 (setting [2]) is below 30 nM; in the test on EBC1 (EBC-1, 96 h, EBC1 cells), below 30 nM; in the test on A549 (A549, 96 h), above 50000 nM.
